Source: patent publication US9162979B2, “1,5-Diary1-2-alkylpyrrole-3-substituted nitro esters, selective COX-2 inhibitors and nitric oxide donors” (ROTTAPHARM BIOTECH S.R.L., priority 2010, dated 2015)

Columns and labels:
[1] = target: COX-2 (Mus musculus (Mouse), UniProt Q05769); experiment: Evaluation of COX-2 activity: PGE2 production in LPS-stimulated J774 cells; assay type: cell-based, murine; settings: J774 cells stimulated 24 hours with LPS 10 μg/mL; PGE2 by radio-immunological assay; read-out: Cyclooxygenase inhibition COX-2 IC50
Procedure: The murine monocyte/macrophage cell line J774 is grown in Dulbecco's modified Eagle's medium (DMEM), enriched with glutamine (2 mM), HEPES (25 mM), penicillin (100 u/mL), streptomycin (100 μg/mL), 10% of fetal bovine serum (FBS) and 1.2% of sodium pyruvate. […] Just before the experiments, the culture medium is replaced with fresh medium without FBS to avoid interference during the radio-immunological phase and the cells are stimulated as described below.
The supernatants are collected for evaluating, by means of radio-immunological assays, the amount of PGE2 produced.
In each group of experiments, wells were used in triplicate for the different treatment conditions. […] The data were evaluated using the sigmoidal dose-response equation (variable slope) (GraphPad software). IC50 and the 95% precision intervals were calculated with the program GraphPad Instat (GraphPad software).

[2] = tested on: isolated rings of thoracic aorta; experiment: Evaluation of release of NO: vasorelaxing activity on endothelium-denuded aortic rings contracted with KCl; set-up: species or system rat; key to NO release properties Emax (maximum vasorelaxing effect) / NO release properties pIC50 (vasorelaxing potency): S.E: Scarcely Effective: it is not possible to detect NO release comparable to the other compounds mentioned here; settings: for IC50 / Emax: Rattus norvegicus; for IC50 / NO release properties pIC50 (vasorelaxing potency): concentration reducing contractile tone induced by 20 mM KCl by half; for IC50: read-out: NO release properties pIC50 (vasorelaxing potency) (converted); for Emax / NO release properties Emax (maximum vasorelaxing effect): relative to contractile tone induced by 20 mM KCl, 1 nM-10 μM; for Emax: read-out: NO release properties Emax (maximum vasorelaxing effect)
Procedure: The activity of the compounds was evaluated on isolated rings of thoracic aorta of normotensive male Wistar rats (250-350 g). After light anaesthesia with ether, the rats were sacrificed by cervical dislocation and exsanguination. The aortas were immediately excised, extraneous tissues were removed and the endothelial layer was removed by gently rubbing the surface with a hypodermic needle. Rings of aorta with a width of 5 mm were suspended, with a preload of 2 g, in 20-ml organ baths, containing a solution of “Tyrode” (composition of the saline solution in mM: NaCl 136.8; KCl 2.95; CaCl2 1.80; MgSO4 1.05; NaH2PO4 0.41; NaHCO3 11.9; glucose 5.5), thermostatically controlled at 37° C. and kept in an atmosphere of O2 (95%) and CO2 (5%). […] were recorded by means of an isometric transducer (FTO3 Erba), connected to a microdynamometer (Buxco Electronics).
60 minutes after preparation, removal of the endothelium was confirmed by acetylcholine (ACH) (10 μM) treatment of the vascular rings pre-contracted with KCl (20 mM). Relaxation of less than 10% of the contraction induced by KCl was considered as representative of acceptable removal of the endothelial layer, whereas organs displaying relaxation ≧10% were discarded. 40 minutes after confirmation of complete removal of the endothelium, the aortas were contracted by treatment with a single dose of KCl (20 mM) and after the contraction reached a stable plateau, increasing cumulative concentrations (with progressive increments of 3 times) of the test compounds (1 nM-10 μM) were added. It was found from preliminary experiments that the contraction induced by KCl (20 mM) remained stable in a tonic state for at least 40 minutes. The same experiments were performed in the presence of a well-known inhibitor of guanylate cyclase: ODQ 1 μM, which was incubated in aorta preparations after confirmation of removal of the endothelium.
Analysis of the results. The vasorelaxing activity was evaluated as a percentage (%) relative to the contractile tone induced by 20 mM KCl. The pharmacodynamic efficacy parameter (Emax) corresponds to the maximum vasorelaxing effect induced by the molecule tested, expressed as percentage relative to the contractile tone induced by 20 mM KCl. When the limit concentration of 10 μM (the highest concentration administered) of the test compounds has not reached the maximum effect, the efficacy parameter (Emax) corresponds to the vasorelaxing effect induced by the limit concentration (expressed as percentage relative to the contractile tone induced by 20 mM KCl). The pharmacodynamic parameter of potency of the compounds was expressed as pIC50 calculated as the negative logarithm of the molar concentration of test compound that reduces the contractile tone induced by 20 mM KCl by half. […] The parameters of efficacy and potency were expressed as mean±standard error, for 5-10 experiments. The experimental data were analysed by the program GraphPad Prism 3.0.

COX-2, sequence (Q05769 18-604): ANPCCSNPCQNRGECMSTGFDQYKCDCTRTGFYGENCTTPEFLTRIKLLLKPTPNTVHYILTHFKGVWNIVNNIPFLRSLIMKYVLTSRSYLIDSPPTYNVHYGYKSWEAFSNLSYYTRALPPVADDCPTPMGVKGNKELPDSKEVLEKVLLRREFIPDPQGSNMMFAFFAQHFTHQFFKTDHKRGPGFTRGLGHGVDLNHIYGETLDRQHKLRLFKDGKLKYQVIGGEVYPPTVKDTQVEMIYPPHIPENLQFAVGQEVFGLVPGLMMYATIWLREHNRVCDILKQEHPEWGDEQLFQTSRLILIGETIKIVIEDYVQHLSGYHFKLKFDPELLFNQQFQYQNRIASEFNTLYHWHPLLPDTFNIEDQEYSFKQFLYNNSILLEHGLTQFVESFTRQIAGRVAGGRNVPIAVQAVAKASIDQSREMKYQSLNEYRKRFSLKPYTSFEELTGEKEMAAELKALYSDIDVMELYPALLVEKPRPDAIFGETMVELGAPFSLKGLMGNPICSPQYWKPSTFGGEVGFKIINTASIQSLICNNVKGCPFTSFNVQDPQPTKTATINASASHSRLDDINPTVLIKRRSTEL

| Structure (SMILES) | IC50 [1] | Emax [2] | also measured |
| --- | --- | --- | --- |
| Cc1c(CC(=O)OCCO)cc(-c2ccc(S(C)(=O)=O)cc2)n1-c1ccccc1 [Example 1-II] | 27 nM | – | – |
| Cc1c(CC(=O)OCCCO[N+](=O)[O-])cc(-c2ccc(S(C)(=O)=O)cc2)n1-c1ccccc1 [Example 6] | – | – | melting point: 116 to 118 °C |
| Cc1c(CCOCCO[N+](=O)[O-])cc(-c2ccc(S(C)(=O)=O)cc2)n1-c1ccccc1 [Example 36, 2-[2-[1-Phenyl-2-methyl-5-(4-methylsulphonylphenyl)-1H-pyrrol-3-yl]ethoxy]ethyl Nitrate] | 17 nM | 65% | IC50 [2]: 6030 nM |
| Cc1c(CC(=O)NC(CCO)C(=O)O)cc(-c2ccc(S(C)(=O)=O)cc2)n1-c1ccc(F)cc1 (racemic) [Example 32-II, (R,S)-4-(Hydroxy)-2-[[1-(4-fluorophenyl)-2-methyl-5-(4-methylsulphonylphenyl)-1H-pyrrol-3-yl]acetamido]butanoic Acid] | 86 nM | – | – |
| Cc1c(CC(=O)OCCCCO)cc(-c2ccc(S(C)(=O)=O)cc2)n1-c1cccc(F)c1 [Example 12-II, 4-(hydroxy)butyl-[1-(3-fluorophenyl)-2-methyl-5-(4-methylsulphonylphenyl)-1H-pyrrol-3-yl]-acetate] | 110 nM | – | – |
| Cc1c(CC(=O)NC(CO)C(=O)O)cc(-c2ccc(S(C)(=O)=O)cc2)n1-c1cccc(F)c1 (stereo in doubt) [Example 30-II, (S)-3-(Hydroxy)-2-[1-(3-fluorophenyl)-2-methyl-5-(4-methylsulphonylphenyl)-1H-pyrrol-3-yl]acetamido]propanoic Acid] | 57 nM | – | – |
| Cc1c(CC(=O)NC(CO[N+](=O)[O-])C(=O)O)cc(-c2ccc(S(C)(=O)=O)cc2)n1-c1cccc(F)c1 (stereo in doubt) [Example 30, (S)-3-(Nitroxy)-2-[1-(3-fluorophenyl)-2-methyl-5-(4-methylsulphonylphenyl)-1H-pyrrol-3-yl]acetamido]propanoic Acid] | 140 nM | – | NO release properties pIC50 (vasorelaxing potency) [2]: S.E; NO release properties Emax (maximum vasorelaxing effect) [2]: S.E |
| CSc1ccc(-n2c(-c3ccc(S(C)(=O)=O)cc3)cc(CC(=O)OCCCCO[N+](=O)[O-])c2C)cc1 [Example 14, 4-(Nitrooxy)butyl-2-[1-(4-thiomethylphenyl)-2-methyl-5-(4-methylsulphonylphenyl)-1H-pyrrol-3-yl]acetate] | 220 nM | 55 ± 15% | vasorelaxing effect in the presence of ODQ ([2]; ODQ 1 μM, guanylate cyclase inhibitor): not fully antagonized by ODQ; IC50 [2]: 5010 nM |
| CSc1ccc(-n2c(-c3ccc(S(C)(=O)=O)cc3)cc(CC(=O)OCCCCO)c2C)cc1 [Example 14-II, 4-(Hydroxy)butyl-2-[1-(4-thiomethylphenyl)-2-methyl-5-(4-methylsulphonylphenyl)-1H-pyrrol-3-yl]acetate] | 55 nM | – | – |
| Cc1c(CCOCCCO[N+](=O)[O-])cc(-c2ccc(S(C)(=O)=O)cc2)n1-c1ccccc1 [Example 40, 3-[2-[2-(1-Phenyl-2-methyl-5-(4-methylsulphonylphenyl)-1H-pyrrol-3-yl)ethoxy]propyl Nitrate] | 15 nM | 48.2 ± 0.5% | – |
| Cc1c(CC(=O)NC(CO)C(=O)O)cc(-c2ccc(S(C)(=O)=O)cc2)n1-c1ccc(F)cc1 (stereo in doubt) [Example 29-II, (S)-3-(Hydroxy)-2-[[1-(4-fluorophenyl)-2-methyl-5-(4-methylsulphonylphenyl)-1H-pyrrol-3-yl]acetamido]propanoic Acid] | 160 nM | – | – |
| CSc1ccc(-n2c(-c3ccc(S(C)(=O)=O)cc3)cc(CC(=O)OCCCO)c2C)cc1 [Example 10-II, 3-(Hydroxy)propyl-[1-(4-methylthiophenyl)-2-methyl-5-(4-methylsulphonylphenyl)-1H-pyrrol-3-yl]-acetate] | 260 nM | – | – |
| Cc1c(CC(=O)OCCO[N+](=O)[O-])cc(-c2ccc(S(C)(=O)=O)cc2)n1-c1ccccc1 [Example 1, 2-(Nitrooxy)ethyl-2-[1-phenyl-2-methyl-5-(4-methylsulphonylphenyl)-1H-pyrrol-3-yl]acetate] | 43 nM | 66 ± 3% | IC50 [2]: 1410 nM |
| Cc1c(CC(=O)NC(CCO[N+](=O)[O-])C(=O)O)cc(-c2ccc(S(C)(=O)=O)cc2)n1-c1cccc(F)c1 (racemic) [Example 33, (R,S)-4-(Nitroxy)-2-[[1-(3-fluorophenyl)-2-methyl-5-(4-methylsulphonylphenyl)-1H-pyrrol-3-yl]acetamido]butanoic Acid] | – | 23 ± 2% | – |
| CSc1ccc(-n2c(-c3ccc(S(C)(=O)=O)cc3)cc(CC(=O)OCCO)c2C)cc1 [Example 5-II, 2-Hydroxyethyl-[1-(4-methylthiophenyl)-2-methyl-5-(4-methylsulphonylphenyl)-1H-pyrrol-3-yl]-acetate] | 85 nM | – | – |
| COc1ccc(-n2c(-c3ccc(S(C)(=O)=O)cc3)cc(CC(=O)OCCCO)c2C)cc1 [Example 9-II, 3-Hydroxypropyl-[1-(4-methoxyphenyl)-2-methyl-5-(4-methylsulphonylphenyl)-1H-pyrrol-3-yl]-acetate] | 700 nM | – | – |
| Cc1c(CC(=O)OCCCO)cc(-c2ccc(S(C)(=O)=O)cc2)n1-c1cccc(F)c1 [Example 8-II, 3-Hydroxypropyl-[1-(3-fluorophenyl)-2-methyl-5-(4-methylsulphonylphenyl)-1H-pyrrol-3-yl]-acetate] | 23 nM | – | – |
| CSc1ccc(-n2c(-c3ccc(S(C)(=O)=O)cc3)cc(CC(=O)OCCO[N+](=O)[O-])c2C)cc1 [Example 5, 2-(Nitroxy)ethyl-[1-(4-methylthiophenyl)-2-methyl-5-(4-methylsulphonylphenyl)-1H-pyrrol-3-yl]-acetate] | – | 64.9 ± 1.4% | IC50 [2]: 457 nM |
| Cc1c(CC(=O)OCC(CO[N+](=O)[O-])O[N+](=O)[O-])cc(-c2ccc(S(C)(=O)=O)cc2)n1-c1ccccc1 (racemic) [Example 15, (R,S)-2,3-bis(Nitrooxy)propyl-2-[1-phenyl-2-methyl-5-(4-methylsulphonylphenyl)-1H-pyrrol-3-yl]acetate] | – | 57 ± 6% | IC50 [2]: 1120 nM |
| Cc1c(CC(=O)NCCO)cc(-c2ccc(S(C)(=O)=O)cc2)n1-c1cccc(F)c1 [Example 24-II, N-[(2-hydroxy)ethyl]-2-[1-(3-fluorophenyl)-2-methyl-5-(4-methylsulphonylphenyl)-1H-pyrrol-3-yl]acetamide] | 290 nM | – | – |
| CSc1ccc(-n2c(-c3ccc(S(C)(=O)=O)cc3)cc(CC(=O)OCCCO[N+](=O)[O-])c2C)cc1 [Example 10, 3-(Nitroxy)propyl-[1-(4-methylthiophenyl)-2-methyl-5-(4-methylsulphonylphenyl)-1H-pyrrol-3-yl]-acetate] | 27 nM | 41 ± 8% | – |
| Cc1c(CCOCCCO)cc(-c2ccc(S(C)(=O)=O)cc2)n1-c1cccc(F)c1 [Example 42-II, 3-[2-(1-(3-Fluorophenyl)-2-methyl-5-(4-methylsulphonylphenyl)-1H-pyrrol-3-yl)ethoxy]propanol] | 1500 nM | – | – |
| Cc1c(CC(=O)NC(CO[N+](=O)[O-])C(=O)O)cc(-c2ccc(S(C)(=O)=O)cc2)n1-c1ccc(F)cc1 (stereo in doubt) [Example 29, (S)-3-(Nitroxy)-2-[[1-(4-fluorophenyl)-2-methyl-5-(4-methylsulphonylphenyl)-1H-pyrrol-3-yl]acetamido]propanoic Acid] | 310 nM | – | NO release properties pIC50 (vasorelaxing potency) [2]: S.E; NO release properties Emax (maximum vasorelaxing effect) [2]: S.E |
